Earlier results as cited in patent publication US20050186294A1 (priority 1999, published 2005).
Where two headings read alike, the source gives them in different places. Each block holds one compound with its values, some of them ahead of it.

Legend:
[1] = system: cGMP
[2] = system: penile erection; details: oral, men
[3] = target: 5 Phosphodiesterase (Homo sapiens, UniProt O76074); details: in vitro, similar Molar concentrations
[4] = larger molecular weight molecules such as Testosterone
[5] = after oral arginine supplementation (6 g)

SMILES: N=C(N)NCCC[C@H](N)C(=O)O [L-arginine]
L-arginine level in the blood (after infusion of 6 g): 822 nM/ml
L-arginine level in the blood (after infusion of 30 g): 6223 nmol/mL
blood concentration [5]: 310 µM
detectable cGMP excretion rates in urine ([1]; after infusion of 30 g and 6 g): rise in detectable cGMP excretion rates in urine
increases in detectable cGMP [1, 5]: not statistically significant

SMILES: CCCc1nn(C)c2c(=O)[nH]c(-c3cc(S(=O)(=O)N4CCN(C)CC4)ccc3OCC)nc12 [sildenafil]
effectiveness to create a penile erection ([2]; after first use): 54%
effectiveness to create a penile erection ([2]; by the eighth use): 86%
inhibition of 5 Phosphodiesterase activity [3]: 85%

increase of membrane permeability [4]: 2-4 times
SMILES: CC1CCC(C(C)C)C(O)C1 (stereo not drawn) [Menthol]
